# Reference: ChEMBL document CHEMBL1151433, “National and regional assessment of antimicrobial resistance among community-acquired respiratory tract pathogens identified in a 2005-2006 U.S. Faropenem surveillance study” (2007)
# Experiments:
# Streptococcus pneumoniae [1] = assay: Antibacterial activity against Streptococcus pneumoniae ATCC 49619 isolated from respiratory tract infected patients after 20 to 24 hrs by broth microdilution method; type: functional
# Streptococcus pneumoniae [2] = assay: Antibacterial activity against penicillin-susceptible Streptococcus pneumoniae ATCC 49619 isolated from respiratory tract infected patients after 20 to 24 hrs by broth microdilution method; type: functional
# Streptococcus pneumoniae [3] = assay: Antibacterial activity against penicillin-intermediate Streptococcus pneumoniae ATCC 49619 isolated from respiratory tract infected patients after 20 to 24 hrs by broth microdilution method; type: functional
# Streptococcus pneumoniae [4] = assay: Antibacterial activity against penicillin-resistant Streptococcus pneumoniae ATCC 49619 isolated from respiratory tract infected patients after 20 to 24 hrs by broth microdilution method; type: functional
# Streptococcus pneumoniae [5] = assay: Antibacterial activity against Streptococcus pneumoniae ATCC 49619 isolated from respiratory tract infected patients assessed as susceptible isolates after 20 to 24 hrs by broth microdilution method; type: functional
# Streptococcus pneumoniae [6] = assay: Antibacterial activity against penicillin-susceptible Streptococcus pneumoniae ATCC 49619 isolated from respiratory tract infected patients assessed as susceptible isolates after 20 to 24 hrs by broth microdilution method; type: functional
# Streptococcus pneumoniae [7] = assay: Antibacterial activity against penicillin-intermediate Streptococcus pneumoniae ATCC 49619 isolated from respiratory tract infected patients assessed as susceptible isolates after 20 to 24 hrs by broth microdilution method; type: functional
# Streptococcus pneumoniae [8] = assay: Antibacterial activity against penicillin-resistant Streptococcus pneumoniae ATCC 49619 isolated from respiratory tract infected patients assessed as susceptible isolates after 20 to 24 hrs by broth microdilution method; type: functional
# Streptococcus pneumoniae [9] = assay: Antibacterial activity against Streptococcus pneumoniae ATCC 49619 isolated from respiratory tract infected patients assessed as resistant isolates after 20 to 24 hrs by broth microdilution method; type: functional
# Streptococcus pneumoniae [10] = assay: Antibacterial activity against penicillin-susceptible Streptococcus pneumoniae ATCC 49619 isolated from respiratory tract infected patients assessed as resistant isolates after 20 to 24 hrs by broth microdilution method; type: functional
# Streptococcus pneumoniae [11] = assay: Antibacterial activity against penicillin-intermediate Streptococcus pneumoniae ATCC 49619 isolated from respiratory tract infected patients assessed as resistant isolates after 20 to 24 hrs by broth microdilution method; type: functional
# Streptococcus pneumoniae [12] = assay: Antibacterial activity against penicillin-resistant Streptococcus pneumoniae ATCC 49619 isolated from respiratory tract infected patients assessed as resistant isolates after 20 to 24 hrs by broth microdilution method; type: functional
# Haemophilus influenzae [13] = assay: Antibacterial activity against Haemophilus influenzae […] isolated from respiratory tract infected patients after 20 to 24 hrs by broth microdilution method; type: functional; conditions: ATCC 49247
# Haemophilus influenzae [14] = assay: Antibacterial activity against beta lactamase-positive Haemophilus influenzae […] isolated from respiratory tract infected patients after 20 to 24 hrs by broth microdilution method; type: functional; conditions: ATCC 49247
# Haemophilus influenzae [15] = assay: Antibacterial activity against beta lactamase-negative Haemophilus influenzae […] isolated from respiratory tract infected patients after 20 to 24 hrs by broth microdilution method; type: functional; conditions: ATCC 49247
# Haemophilus influenzae [16] = assay: Antibacterial activity against Haemophilus influenzae […] isolated from respiratory tract infected patients assessed as susceptible isolates after 20 to 24 hrs by broth microdilution method; type: functional, ATCC 49247
# Haemophilus influenzae [17] = assay: Antibacterial activity against beta lactamase-positive Haemophilus influenzae […] isolated from respiratory tract infected patients assessed as susceptible isolates after 20 to 24 hrs by broth microdilution method; type: functional, ATCC 49247
# Haemophilus influenzae [18] = assay: Antibacterial activity against beta lactamase-negative Haemophilus influenzae […] isolated from respiratory tract infected patients assessed as susceptible isolates after 20 to 24 hrs by broth microdilution method; type: functional
# Haemophilus influenzae [19] = assay: Antibacterial activity against Haemophilus influenzae […] isolated from respiratory tract infected patients assessed as resistant isolates after 20 to 24 hrs by broth microdilution method; type: functional, ATCC 49247
# Haemophilus influenzae [20] = assay: Antibacterial activity against beta lactamase-positive Haemophilus influenzae […] isolated from respiratory tract infected patients assessed as resistant isolates after 20 to 24 hrs by broth microdilution method; type: functional, ATCC 49247
# Haemophilus influenzae [21] = assay: Antibacterial activity against beta lactamase-negative Haemophilus influenzae […] isolated from respiratory tract infected patients assessed as resistant isolates after 20 to 24 hrs by broth microdilution method; type: functional, ATCC 49247
# Moraxella catarrhalis = assay: Antibacterial activity against Moraxella catarrhalis isolated from respiratory tract infected patients after 20 to 24 hrs by broth microdilution method; type: functional
# Streptococcus pneumoniae [22] = assay: Antibacterial activity against Streptococcus pneumoniae ATCC 49619 isolated from respiratory tract infected patients within 2 years of age after 20 to 24 hrs by broth microdilution method; type: functional
# Streptococcus pneumoniae [23] = assay: Antibacterial activity against Streptococcus pneumoniae ATCC 49619 isolated from respiratory tract infected patients with 3 to 5 years of age after 20 to 24 hrs by broth microdilution method; type: functional
# Streptococcus pneumoniae [24] = assay: Antibacterial activity against Streptococcus pneumoniae ATCC 49619 isolated from respiratory tract infected patients with 6 to 14 years of age after 20 to 24 hrs by broth microdilution method; type: functional
# Streptococcus pneumoniae [25] = assay: Antibacterial activity against Streptococcus pneumoniae ATCC 49619 isolated from respiratory tract infected patients with 15 to 64 years of age after 20 to 24 hrs by broth microdilution method; type: functional
# Streptococcus pneumoniae [26] = assay: Antibacterial activity against Streptococcus pneumoniae ATCC 49619 isolated from respiratory tract infected patients more than 65 years of age after 20 to 24 hrs by broth microdilution method; type: functional
# Streptococcus pneumoniae [27] = assay: Antibacterial activity against Streptococcus pneumoniae ATCC 49619 isolated from respiratory tract infected patients within 2 years of age assessed as resistant isolates after 20 to 24 hrs by broth microdilution method; type: functional
# Streptococcus pneumoniae [28] = assay: Antibacterial activity against Streptococcus pneumoniae ATCC 49619 isolated from respiratory tract infected patients with 3 to 5 years of age assessed as resistant isolates after 20 to 24 hrs by broth microdilution method; type: functional
# Streptococcus pneumoniae [29] = assay: Antibacterial activity against Streptococcus pneumoniae ATCC 49619 isolated from respiratory tract infected patients with 6 to 14 years of age assessed as resistant isolates after 20 to 24 hrs by broth microdilution method; type: functional
# Streptococcus pneumoniae [30] = assay: Antibacterial activity against Streptococcus pneumoniae ATCC 49619 isolated from respiratory tract infected patients with 15 to 64 years of age assessed as resistant isolates after 20 to 24 hrs by broth microdilution method; type: functional
# Streptococcus pneumoniae [31] = assay: Antibacterial activity against Streptococcus pneumoniae ATCC 49619 isolated from respiratory tract infected patients more than 65 years of age assessed as resistant isolates after 20 to 24 hrs by broth microdilution method; type: functional
# Streptococcus pneumoniae [32] = assay: Antibacterial activity against Streptococcus pneumoniae ATCC 49619 isolated from respiratory tract infected male patients after 20 to 24 hrs by broth microdilution method; type: functional
# Streptococcus pneumoniae [33] = assay: Antibacterial activity against Streptococcus pneumoniae ATCC 49619 isolated from respiratory tract infected male patients assessed as resistant isolates after 20 to 24 hrs by broth microdilution method; type: functional
# Streptococcus pneumoniae [34] = assay: Antibacterial activity against Streptococcus pneumoniae ATCC 49619 isolated from respiratory tract infected female patients after 20 to 24 hrs by broth microdilution method; type: functional
# Streptococcus pneumoniae [35] = assay: Antibacterial activity against Streptococcus pneumoniae ATCC 49619 isolated from respiratory tract infected female patients assessed as resistant isolates after 20 to 24 hrs by broth microdilution method; type: functional
# Streptococcus pneumoniae [36] = assay: Antibacterial activity against Streptococcus pneumoniae ATCC 49619 isolated from respiratory tract infected inpatients after 20 to 24 hrs by broth microdilution method; type: functional
# Streptococcus pneumoniae [37] = assay: Antibacterial activity against Streptococcus pneumoniae ATCC 49619 isolated from respiratory tract infected inpatients assessed as resistant isolates after 20 to 24 hrs by broth microdilution method; type: functional
# Streptococcus pneumoniae [38] = assay: Antibacterial activity against Streptococcus pneumoniae ATCC 49619 isolated from respiratory tract infected outpatients after 20 to 24 hrs by broth microdilution method; type: functional
# Streptococcus pneumoniae [39] = assay: Antibacterial activity against Streptococcus pneumoniae ATCC 49619 isolated from respiratory tract infected outpatients assessed as resistant isolates after 20 to 24 hrs by broth microdilution method; type: functional
smiles,measurement,setting,value
CO/N=C(\C(=O)N[C@@H]1C(=O)N2C(C(=O)O)=C(COC(N)=O)CS[C@H]12)c1ccco1 [CEFUROXIME],MIC50,Streptococcus pneumoniae [1],≤ 0.5 µg/mL
same,MIC90,Streptococcus pneumoniae [1],8 µg/mL
same,MIC50,Streptococcus pneumoniae [2],≤ 0.5 µg/mL
same,MIC90,Streptococcus pneumoniae [2],≤ 0.5 µg/mL
same,MIC50,Streptococcus pneumoniae [3],≤ 0.5 µg/mL
same,MIC90,Streptococcus pneumoniae [3],4 µg/mL
same,MIC50,Streptococcus pneumoniae [4],8 µg/mL
same,MIC90,Streptococcus pneumoniae [4],16 µg/mL
same,Activity,Streptococcus pneumoniae [5],78.2%
same,Activity,Streptococcus pneumoniae [6],99.9%
same,Activity,Streptococcus pneumoniae [7],74%
same,Activity,Streptococcus pneumoniae [8],0%
same,Activity,Streptococcus pneumoniae [9],18.7%
same,Activity,Streptococcus pneumoniae [10],0%
same,Activity,Streptococcus pneumoniae [11],12.7%
same,Activity,Streptococcus pneumoniae [12],99.2%
same,MIC50,Haemophilus influenzae [13],1 µg/mL
same,MIC90,Haemophilus influenzae [13],2 µg/mL
same,MIC50,Haemophilus influenzae [14],1 µg/mL
same,MIC90,Haemophilus influenzae [14],2 µg/mL
same,MIC50,Haemophilus influenzae [15],1 µg/mL
same,MIC90,Haemophilus influenzae [15],2 µg/mL
same,Activity,Haemophilus influenzae [16],97.6%
same,Activity,Haemophilus influenzae [17],96.3%
same,Activity,Haemophilus influenzae [18],98%
same,Activity,Haemophilus influenzae [19],0.3%
same,Activity,Haemophilus influenzae [20],0.7%
same,Activity,Haemophilus influenzae [21],0.2%
same,MIC50,Moraxella catarrhalis,1 µg/mL
same,MIC90,Moraxella catarrhalis,2 µg/mL
C[C@H]1COc2c(N3CCN(C)CC3)c(F)cc3c(=O)c(C(=O)O)cn1c23.C[C@H]1COc2c(N3CCN(C)CC3)c(F)cc3c(=O)c(C(=O)O)cn1c23.O [LEVOFLOXACIN],MIC50,Streptococcus pneumoniae [1],1 µg/mL
same,MIC90,Streptococcus pneumoniae [1],1 µg/mL
same,MIC50,Streptococcus pneumoniae [2],1 µg/mL
same,MIC90,Streptococcus pneumoniae [2],1 µg/mL
same,MIC50,Streptococcus pneumoniae [3],1 µg/mL
same,MIC90,Streptococcus pneumoniae [3],1 µg/mL
same,MIC50,Streptococcus pneumoniae [4],1 µg/mL
same,MIC90,Streptococcus pneumoniae [4],1 µg/mL
same,Activity,Streptococcus pneumoniae [5],99.2%
same,Activity,Streptococcus pneumoniae [6],99.7%
same,Activity,Streptococcus pneumoniae [7],98.8%
same,Activity,Streptococcus pneumoniae [8],98%
same,Activity,Streptococcus pneumoniae [9],0.6%
same,Activity,Streptococcus pneumoniae [10],0.2%
same,Activity,Streptococcus pneumoniae [11],0.9%
same,Activity,Streptococcus pneumoniae [12],1.6%
same,MIC50,Haemophilus influenzae [13],≤ 0.06 µg/mL
same,MIC90,Haemophilus influenzae [13],≤ 0.06 µg/mL
same,MIC50,Haemophilus influenzae [14],≤ 0.06 µg/mL
same,MIC90,Haemophilus influenzae [14],≤ 0.06 µg/mL
same,MIC50,Haemophilus influenzae [15],≤ 0.06 µg/mL
same,MIC90,Haemophilus influenzae [15],≤ 0.06 µg/mL
same,Activity,Haemophilus influenzae [16],99.9%
same,Activity,Haemophilus influenzae [17],100%
same,Activity,Haemophilus influenzae [18],99.7%
same,MIC50,Moraxella catarrhalis,≤ 0.06 µg/mL
same,MIC90,Moraxella catarrhalis,≤ 0.06 µg/mL
same,MIC90,Streptococcus pneumoniae [22],1 µg/mL
same,MIC90,Streptococcus pneumoniae [23],1 µg/mL
same,MIC90,Streptococcus pneumoniae [24],1 µg/mL
same,MIC90,Streptococcus pneumoniae [25],1 µg/mL
same,MIC90,Streptococcus pneumoniae [26],1 µg/mL
same,Activity,Streptococcus pneumoniae [27],0%
same,Activity,Streptococcus pneumoniae [28],0%
same,Activity,Streptococcus pneumoniae [29],0%
same,Activity,Streptococcus pneumoniae [30],0.4%
same,Activity,Streptococcus pneumoniae [31],1.4%
same,MIC90,Streptococcus pneumoniae [32],1 µg/mL
same,Activity,Streptococcus pneumoniae [33],0.8%
same,MIC90,Streptococcus pneumoniae [34],1 µg/mL
same,Activity,Streptococcus pneumoniae [35],0.3%
same,MIC90,Streptococcus pneumoniae [36],1 µg/mL
same,Activity,Streptococcus pneumoniae [37],0.1%
same,MIC90,Streptococcus pneumoniae [38],1 µg/mL
same,Activity,Streptococcus pneumoniae [39],0.9%
CC[C@H]1OC(=O)[C@H](C)C(=O)[C@H](C)[C@@H](O[C@@H]2O[C@H](C)C[C@H](N(C)C)[C@H]2O)[C@](C)(OC)C[C@@H](C)C(=O)[C@H](C)[C@H]2N(CCCCn3cnc(-c4cccnc4)c3)C(=O)O[C@]12C [TELITHROMYCIN],MIC50,Streptococcus pneumoniae [1],≤ 0.12 µg/mL
same,MIC90,Streptococcus pneumoniae [1],0.5 µg/mL
same,MIC50,Streptococcus pneumoniae [2],≤ 0.12 µg/mL
same,MIC90,Streptococcus pneumoniae [2],≤ 0.12 µg/mL
same,MIC50,Streptococcus pneumoniae [3],≤ 0.12 µg/mL
same,MIC90,Streptococcus pneumoniae [3],0.5 µg/mL
same,MIC50,Streptococcus pneumoniae [4],0.5 µg/mL
same,MIC90,Streptococcus pneumoniae [4],1 µg/mL
same,Activity,Streptococcus pneumoniae [5],99.4%
same,Activity,Streptococcus pneumoniae [6],99.8%
same,Activity,Streptococcus pneumoniae [7],100%
same,Activity,Streptococcus pneumoniae [8],97.2%
same,Activity,Streptococcus pneumoniae [9],0.1%
same,Activity,Streptococcus pneumoniae [10],0.1%
same,Activity,Streptococcus pneumoniae [11],0%
same,Activity,Streptococcus pneumoniae [12],0%
same,MIC50,Haemophilus influenzae [13],2 µg/mL
same,MIC90,Haemophilus influenzae [13],4 µg/mL
same,MIC50,Haemophilus influenzae [14],2 µg/mL
same,MIC90,Haemophilus influenzae [14],4 µg/mL
same,MIC50,Haemophilus influenzae [15],2 µg/mL
same,MIC90,Haemophilus influenzae [15],4 µg/mL
same,Activity,Haemophilus influenzae [16],96.4%
same,Activity,Haemophilus influenzae [17],97%
same,Activity,Haemophilus influenzae [18],96.1%
same,Activity,Haemophilus influenzae [19],0.7%
same,Activity,Haemophilus influenzae [20],0.8%
same,Activity,Haemophilus influenzae [21],0.7%
same,MIC50,Moraxella catarrhalis,≤ 0.12 µg/mL
same,MIC90,Moraxella catarrhalis,≤ 0.12 µg/mL
